{"source": "patent US10906915B2", "about": "“Substituted pyrazoloazepin-4-ones and their use as phosphodiesterase inhibitors” (LEO Pharma A/S, priority 2016, dated 2021)", "biological_target": "human PDE4D catalytic domain (UniProt no. Q08499) (Homo sapiens (Human), UniProt Q08499)", "sequence (Q08499 380-740 limits assumed)": "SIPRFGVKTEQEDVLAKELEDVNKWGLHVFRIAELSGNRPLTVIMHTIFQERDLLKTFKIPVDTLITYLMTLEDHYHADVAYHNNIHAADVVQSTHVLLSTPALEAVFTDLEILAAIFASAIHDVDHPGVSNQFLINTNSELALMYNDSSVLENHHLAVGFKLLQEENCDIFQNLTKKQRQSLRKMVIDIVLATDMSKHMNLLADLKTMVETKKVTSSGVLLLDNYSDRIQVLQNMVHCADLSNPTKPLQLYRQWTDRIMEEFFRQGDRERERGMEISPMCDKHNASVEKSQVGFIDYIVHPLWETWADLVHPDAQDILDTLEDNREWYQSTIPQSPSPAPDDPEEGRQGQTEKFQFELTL", "assay": "PDE4 assay (TR-FRET, FAM-cAMP cleavage)", "format": "biochemical", "conditions": "read-out: PDE4 IC50 range", "summary_of_the_method": "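PDE4D catalytic domain ([…]) was incubated with unlabelled cAMP plus FAM-cAMP and titrated compound, stopped with binding buffer of metal-ion nanoparticles and Tb donor. AMP generation read by TR-FRET; IC50 as 50% inhibition of cleavage versus controls, reported as nM ranges.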", "key": {"[1]": {"conditions": "human PDE4D catalytic domain, molar concentration giving 50% inhibition of substrate cleavage"}}, "note": "Where two headings read alike, the source gives them in different places.", "data": [{"smiles": "CCc1nn(CC(C)(C)COC(=O)c2ccccc2F)c2c1C(=O)NCC1(CCOCC1)C2", "note": "[Example 286, [3-(3-ethyl-4-oxo-spiro[6,8-dihydro-5H-pyrazolo[4,3-c]azepine-7,4′-tetrahydropyran]-1-yl)-2,2-dimethyl-propyl] 2-fluorobenzoate]", "values": [{"measurement": "IC50", "value": "< 100", "unit": "nM"}]}, {"smiles": "CCc1nn(CCCOC(=O)c2cc(C(F)(F)F)ccc2C)c2c1C(=O)NCC1(CCOCC1)C2", "note": "[Example 105, 3-(3-ethyl-4-oxo-spiro[6,8-dihydro-5H-pyrazolo[4,3-c]azepine-7,4′-tetrahydropyran]-1-yl)propyl 2-methyl-5-(trifluoromethyl)benzoate]", "values": [{"measurement": "IC50", "setting": "[1]", "value": "< 100", "unit": "nM"}]}, {"smiles": "CCc1nn(CCCOC(=O)C(C)C)c2c1C(=O)NCC1(CCOCC1)C2", "note": "[Example 7, 3-(3-ethyl-4-oxo-spiro[6,8-dihydro-5H-pyrazolo[4,3-c]azepine-7,4′-tetrahydropyran]-1-yl)propyl 2-methylpropanoate]", "values": [{"measurement": "IC50", "setting": "[1]", "value": "100 to 500", "unit": "nM"}]}, {"smiles": "CCc1nn(CC(C)(C)COC(=O)C(CC)CC)c2c1C(=O)NCC1(CCOCC1)C2", "note": "[Example 282, [3-(3-ethyl-4-oxo-spiro[6,8-dihydro-5H-pyrazolo[4,3-c]azepine-7,4′-tetrahydropyran]-1-yl)-2,2-dimethyl-propyl] 2-ethylbutanoate]", "values": [{"measurement": "IC50", "value": "< 100", "unit": "nM"}]}, {"smiles": "CCc1nn(C[C@@H](C)COC(=O)C(C)C)c2c1C(=O)NCC1(CCOCC1)C2", "note": "[Example 160, [(2R)-3-(3-ethyl-4-oxo-spiro[6,8-dihydro-5H-pyrazolo[4,3-c]azepine-7,4′-tetrahydropyran]-1-yl)-2-methyl-propyl] 2-methylpropanoate]", "values": [{"measurement": "IC50", "setting": "[1]", "value": "< 100", "unit": "nM"}]}, {"smiles": "CCc1nn(CCCOC(=O)c2c(F)cccc2F)c2c1C(=O)NCC1(CCOCC1)C2", "note": "[Example 46, 3-(3-ethyl-4-oxo-spiro[6,8-dihydro-5H-pyrazolo[4,3-c]azepine-7,4′-tetrahydropyran]-1-yl)propyl 2,6-difluorobenzoate]", "values": [{"measurement": "IC50", "setting": "[1]", "value": "< 100", "unit": "nM"}]}, {"smiles": "CCc1nn(C[C@@H](C)COC(=O)c2cccc(C(=O)N3CCN(C)CC3)c2)c2c1C(=O)NCC1(CCOCC1)C2", "note": "[Example 272, [(2R)-3-(3-ethyl-4-oxo-spiro[6,8-dihydro-5H-pyrazolo[4,3-c]azepine-7,4′-tetrahydropyran]-1-yl)-2-methyl-propyl] 3-(4-methylpiperazine-1-carbonyl)benzoate]", "values": [{"measurement": "IC50", "value": "< 100", "unit": "nM"}]}, {"smiles": "CCc1nn(CCCOC(=O)c2cccc(C(=O)N3CCN(C)CC3)c2)c2c1C(=O)NCC1(CCOCC1)C2", "note": "[Example 158, 3-(3-ethyl-4-oxo-spiro[6,8-dihydro-5H-pyrazolo[4,3-c]azepine-7,4′-tetrahydropyran]-1-yl)propyl 3-(4-methylpiperazine-1-carbonyl)benzoate]", "values": [{"measurement": "IC50", "setting": "[1]", "value": "100 to 500", "unit": "nM"}]}, {"smiles": "CCc1nn(C[C@@H](C)COC(=O)c2cccc(S(=O)(=O)N3CCOCC3)c2)c2c1C(=O)NCC1(CCOCC1)C2", "note": "[Example 248, [(2R)-3-(3-ethyl-4-oxo-spiro[6,8-dihydro-5H-pyrazolo[4,3-c]azepine-7,4′-tetrahydropyran]-1-yl)-2-methyl-propyl] 3-morpholinosulfonylbenzoate]", "values": [{"measurement": "IC50", "setting": "[1]", "value": "< 100", "unit": "nM"}]}, {"smiles": "CCc1nn(CCCOC(=O)c2c(F)cccc2OC)c2c1C(=O)NCC1(CCOCC1)C2", "note": "[Example 69, 3-(3-ethyl-4-oxo-spiro[6,8-dihydro-5H-pyrazolo[4,3-c]azepine-7,4′-tetrahydropyran]-1-yl)propyl 2-fluoro-6-methoxy-benzoate]", "values": [{"measurement": "IC50", "setting": "[1]", "value": "< 100", "unit": "nM"}]}, {"smiles": "CCc1nn(CC(C)(C)COC(=O)c2cccc(C(=O)NC)c2)c2c1C(=O)NCC1(CCOCC1)C2", "note": "[Example 340, [3-(3-ethyl-4-oxo-spiro[6,8-dihydro-5H-pyrazolo[4,3-c]azepine-7,4′-tetrahydropyran]-1-yl)-2,2-dimethyl-propyl] 3-(methylcarbamoyl)-benzoate]", "values": [{"measurement": "IC50", "value": "< 100", "unit": "nM"}]}, {"smiles": "CCc1nn(CCCOC(=O)c2ccccc2F)c2c1C(=O)NCC1(CCOCC1)C2", "note": "[Example 19, 3-(3-ethyl-4-oxo-spiro[6,8-dihydro-5H-pyrazolo[4,3-c]azepine-7,4′-tetrahydropyran]-1-yl)propyl 2-fluorobenzoate]", "values": [{"measurement": "IC50", "setting": "[1]", "value": "< 100", "unit": "nM"}]}, {"smiles": "CCc1nn(CCCOC(=O)c2cc(Cl)ccc2F)c2c1C(=O)NCC1(CCOCC1)C2", "note": "[Example 83, 3-(3-ethyl-4-oxo-spiro[6,8-dihydro-5H-pyrazolo[4,3-c]azepine-7,4′-tetrahydropyran]-1-yl)propyl 5-chloro-2-fluoro-benzoate]", "values": [{"measurement": "IC50", "setting": "[1]", "value": "< 100", "unit": "nM"}]}, {"smiles": "CCc1nn(CCCOC(=O)c2cccc(F)c2)c2c1C(=O)NCC1(CCOCC1)C2", "note": "[Example 18, 3-(3-ethyl-4-oxo-spiro[6,8-dihydro-5H-pyrazolo[4,3-c]azepine-7,4′-tetrahydropyran]-1-yl)propyl 3-fluorobenzoate]", "values": [{"measurement": "IC50", "setting": "[1]", "value": "< 100", "unit": "nM"}]}, {"smiles": "CCc1nn(CCCOC(=O)c2ccccc2C)c2c1C(=O)NCC1(CCOCC1)C2", "note": "[Example 16, 3-(3-ethyl-4-oxo-spiro[6,8-dihydro-5H-pyrazolo[4,3-c]azepine-7,4′-tetrahydropyran]-1-yl)propyl 2-methylbenzoate]", "values": [{"measurement": "IC50", "setting": "[1]", "value": "< 100", "unit": "nM"}]}, {"smiles": "CCc1nn(C[C@@H](C)COC(=O)c2ccc(F)c(C#N)c2)c2c1C(=O)NCC1(CCOCC1)C2", "note": "[Example 184, [(2R)-3-(3-ethyl-4-oxo-spiro[6,8-dihydro-5H-pyrazolo[4,3-c]azepine-7,4′-tetrahydropyran]-1-yl)-2-methyl-propyl] 3-cyano-4-fluoro-benzoate]", "values": [{"measurement": "IC50", "setting": "[1]", "value": "< 100", "unit": "nM"}]}, {"smiles": "CCc1nn(C[C@@H](C)COC(=O)c2ccc(C(=O)N3CCCCC3)cc2)c2c1C(=O)NCC1(CCOCC1)C2", "note": "[Example 258, [(2R)-3-(3-ethyl-4-oxo-spiro[6,8-dihydro-5H-pyrazolo[4,3-c]azepine-7,4′-tetrahydropyran]-1-yl)-2-methyl-propyl] 4-(piperidine-1-carbonyl)benzoate]", "values": [{"measurement": "IC50", "setting": "[1]", "value": "< 100", "unit": "nM"}]}, {"smiles": "CCc1nn(CCCOC(=O)c2cccc(F)c2C)c2c1C(=O)NCC1(CCOCC1)C2", "note": "[Example 36, 3-(3-ethyl-4-oxo-spiro[6,8-dihydro-5H-pyrazolo[4,3-c]azepine-7,4′-tetrahydropyran]-1-yl)propyl 3-fluoro-2-methyl-benzoate]", "values": [{"measurement": "IC50", "setting": "[1]", "value": "< 100", "unit": "nM"}]}, {"smiles": "CCc1nn(CC(C)(C)COC(=O)c2cccc(C#N)c2)c2c1C(=O)NCC1(CCOCC1)C2", "note": "[Example 287, [3-(3-ethyl-4-oxo-spiro[6,8-dihydro-5H-pyrazolo[4,3-c]azepine-7,4′-tetrahydropyran]-1-yl)-2,2-dimethyl-propyl] 3-cyanobenzoate]", "values": [{"measurement": "IC50", "value": "< 100", "unit": "nM"}]}, {"smiles": "CCc1nn(CC(C)(C)COC(=O)c2ccc(S(=O)(=O)CC)cc2)c2c1C(=O)NCC1(CCOCC1)C2", "note": "[Example 312, [3-(3-ethyl-4-oxo-spiro[6,8-dihydro-5H-pyrazolo[4,3-c]azepine-7,4′-tetrahydropyran]-1-yl)-2,2-dimethyl-propyl] 4-ethylsulfonylbenzoate]", "values": [{"measurement": "IC50", "value": "< 100", "unit": "nM"}]}, {"smiles": "CCc1nn(C[C@@H](C)COC(=O)c2cccc(C(N)=O)c2)c2c1C(=O)NCC1(CCOCC1)C2", "note": "[Example 263, [(2R)-3-(3-ethyl-4-oxo-spiro[6,8-dihydro-5H-pyrazolo[4,3-c]azepine-7,4′-tetrahydropyran]-1-yl)-2-methyl-propyl] 3-carbamoylbenzoate]", "values": [{"measurement": "IC50", "value": "< 100", "unit": "nM"}]}, {"smiles": "CCc1nn(C[C@@H](C)COC(=O)c2ccccc2)c2c1C(=O)NCC1(CCOCC1)C2", "note": "[Example 163, [(2R)-3-(3-ethyl-4-oxo-spiro[6,8-dihydro-5H-pyrazolo[4,3-c]azepine-7,4′-tetrahydropyran]-1-yl)-2-methyl-propyl] benzoate]", "values": [{"measurement": "IC50", "setting": "[1]", "value": "< 100", "unit": "nM"}]}, {"smiles": "CCc1nn(C[C@@H](C)COC(=O)c2cc(C(F)(F)F)ccc2F)c2c1C(=O)NCC1(CCOCC1)C2", "note": "[Example 220, [(2R)-3-(3-ethyl-4-oxo-spiro[6,8-dihydro-5H-pyrazolo[4,3-c]azepine-7,4′-tetrahydropyran]-1-yl)-2-methyl-propyl] 2-fluoro-5-(trifluoromethyl)benzoate]", "values": [{"measurement": "IC50", "setting": "[1]", "value": "< 100", "unit": "nM"}]}, {"smiles": "CCc1nn(C[C@@H](C)COC(=O)c2ccc(S(=O)(=O)CC)cc2)c2c1C(=O)NCC1(CCOCC1)C2", "note": "[Example 227, [(2R)-3-(3-ethyl-4-oxo-spiro[6,8-dihydro-5H-pyrazolo[4,3-c]azepine-7,4′-tetrahydropyran]-1-yl)-2-methyl-propyl] 4-ethylsulfonylbenzoate]", "values": [{"measurement": "IC50", "setting": "[1]", "value": "< 100", "unit": "nM"}]}, {"smiles": "CCc1nn(CC(C)(C)COC(=O)c2ccc(C(=O)NC(C)C)cc2)c2c1C(=O)NCC1(CCOCC1)C2", "note": "[Example 332, [3-(3-ethyl-4-oxo-spiro[6,8-dihydro-5H-pyrazolo[4,3-c]azepme-7,4′-tetrahydropyran]-1-yl)-2,2-dimethyl-propyl] 4-(isopropylcarbamoyl)benzoate]", "values": [{"measurement": "IC50", "value": "< 100", "unit": "nM"}]}, {"smiles": "CCc1nn(C[C@@H](C)COC(=O)c2cccc(Cl)c2F)c2c1C(=O)NCC1(CCOCC1)C2", "note": "[Example 198, [(2R)-3-(3-ethyl-4-oxo-spiro[6,8-dihydro-5H-pyrazolo[4,3-c]azepine-7,4′-tetrahydropyran]-1-yl)-2-methyl-propyl] 3-chloro-2-fluoro-benzoate]", "values": [{"measurement": "IC50", "setting": "[1]", "value": "< 100", "unit": "nM"}]}, {"smiles": "CCc1nn(C[C@@H](C)COC(=O)c2c(F)cccc2OC)c2c1C(=O)NCC1(CCOCC1)C2", "note": "[Example 194, [(2R)-3-(3-ethyl-4-oxo-spiro[6,8-dihydro-5H-pyrazolo[4,3-c]azepine-7,4′-tetrahydropyran]-1-yl)-2-methyl-propyl] 2-fluoro-6-methoxy-benzoate]", "values": [{"measurement": "IC50", "setting": "[1]", "value": "< 100", "unit": "nM"}]}, {"smiles": "CCc1nn(CCCOC(=O)c2ccccc2S(C)(=O)=O)c2c1C(=O)NCC1(CCOCC1)C2", "note": "[Example 100, 3-(3-ethyl-4-oxo-spiro[6,8-dihydro-5H-pyrazolo[4,3-c]azepine-7,4′-tetrahydropyran]-1-yl)propyl 2-methylsulfonylbenzoate]", "values": [{"measurement": "IC50", "setting": "[1]", "value": "< 100", "unit": "nM"}]}, {"smiles": "CCc1nn(C[C@@H](C)COC(=O)c2ccccc2S(C)(=O)=O)c2c1C(=O)NCC1(CCOCC1)C2", "note": "[Example 214, [(2R)-3-(3-ethyl-4-oxo-spiro[6,8-dihydro-5H-pyrazolo[4,3-c]azepine-7,4′-tetrahydropyran]-1-yl)-2-methyl-propyl] 2-methylsulfonylbenzoate]", "values": [{"measurement": "IC50", "setting": "[1]", "value": "< 100", "unit": "nM"}]}, {"smiles": "CCc1nn(CC2(COC(=O)c3cccc(OC)c3)CC2)c2c1C(=O)NCC1(CCOCC1)C2", "note": "[Example 354, [1-[(3-ethyl-4-oxo-spiro[6,8-dihydro-5H-pyrazolo[4,3-c]azepine-7,4′-tetrahydropyran]-1-yl)methyl]cyclopropyl]methyl 3-methoxybenzoate]", "values": [{"measurement": "IC50", "value": "< 100", "unit": "nM"}]}]}
